Patent publication US9981928B2, “Aryl sulfide derivatives and aryl sulfoxide derivatives as acaricides and insecticides” (BAYER CROPSCIENCE AKTIENGESELLSCHAFT, priority 2013, dated 2018)
Where two headings read alike, the source gives them in different places.

What was measured:
[1] = log P determination by HPLC on reversed-phase columns (C 18), analogously to OECD Guideline 117; assay type: physicochemical; conditions: for chromatographic logP: reversed-phase C18 HPLC column; for logP (HCOOH): LC-MS in the acidic range, pH 2.7, 0.1% aqueous formic acid / acetonitrile; for logP (HCOOH) / logP (neutral): HPLC reversed-phase C 18; for logP (neutral): LC-MS in the neutral range, pH 7.8, 0.001 molar aqueous ammonium hydrogencarbonate / acetonitrile
Procedure, shortened: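 Reversed-phase C18 HPLC per OECD 117 with LC-MS detection and a linear 10→95% acetonitrile gradient. Acidic log P run at pH 2.7 with 0.1% formic acid in both eluents. Neutral log P run at pH 7.8 with 0.001 M aqueous ammonium hydrogencarbonate.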

[2] = tested on: greenhouse red spider mite (Tetranychus urticae); assay: Tetranychus urticae spray test, OP-resistant (TETRUR), bean leaf disks; assay type: in vivo; conditions: bean leaf disks, after 6 days
Method: Tetranychus urticae—Spray Test, OP-Resistant (TETRUR)
Solvent: 78.0 parts by weight of acetone
• 1.5 parts by weight of dimethylformamide Emulsifier: alkylaryl polyglycol ether
To produce a suitable preparation of active compound, 1 part by weight of active compound is dissolved using the stated parts by weight of solvent and made up with water containing an emulsifier concentration of 1000 ppm until the desired concentration is attained. To produce further test concentrations, the preparation is diluted with emulsifier-containing water.
disks of bean leaves (Phaseolus vulgaris) infested with all stages of the greenhouse red spider mite (Tetranychus urticae) are sprayed with an active compound preparation of the desired concentration.
After 6 days, the efficacy in % is determined. 100% means that all the spider mites have been killed; 0% means that none of the spider mites have been killed.

[3] = acidic range, pH 2.7, 0.1% aqueous formic acid and acetonitrile, read-out: log P[a] / log P(HCOOH)
[4] = neutral range, pH 7.8, 0.001 molar aqueous ammonium hydrogencarbonate and acetonitrile, read-out: log P[b] / log P(neutral)
[5] = Tetranychus urticae, foliar, 144 h, application rate 500 g/ha, read-out: efficacy in %

| chromatographic logP [1, 3] | SMILES | pest or weed control at 500 g/ha [2, 5] [%] | logP (HCOOH) [1] | logP (neutral) [1] | efficacy in % ([2]; application rate 500 g/ha) [%] | further results |
| --- | --- | --- | --- | --- | --- | --- |
| 3.71 | CCn1c(=O)n(-c2ccccc2)c(=O)n1-c1cc(SCC(F)(F)F)c(C)cc1F [Example 87, 1-Ethyl-2-{2-fluoro-4-methyl-5-[(2,2,2-trifluoroethyl)sulfanyl]phenyl}-4-phenyl-1,2,4-triazolidine-3,5-dione] | 90 |  |  |  | chromatographic logP [1, 4]: 3.69 |
|  | CCn1c(=O)n(C)n(-c2ccc(C)c([S+]([O-])CC(F)(F)F)c2)c1=O (centres unmarked) [Example 89] |  | 1.96 | 1.91 | 100 |  |
|  | Cc1ccc(-n2c(=O)n(C3CC3)c(=O)n2Cc2ccccc2)cc1SCC(F)(F)F [Example 90] |  | 3.81 | 3.71 | 100 |  |
|  | Cc1cc(F)c(-n2c(=O)n(C(C)C)c(=O)n2C)cc1[S+]([O-])CC(F)(F)F (centres unmarked) [Example 92] |  | 2.27 | 2.22 | 100 |  |
|  | Cc1cc(F)c(-n2c(=O)n(C(C)(C)C)c(=O)n2C)cc1SCC(F)(F)F [Example 94] |  | 3.85 | 3.82 |  | efficacy in % ([2]; application rate 100 g/ha): 90% |
|  | CCn1c(=O)n(C)c(=O)n1-c1cc(SCC(F)(F)F)c(C)cc1F [Example 97] |  | 2.91 | 2.83 | 100 |  |
|  | CCn1c(=O)n(C)c(=O)n1-c1cc([S+]([O-])CC(F)(F)F)c(C)cc1F (centres unmarked) [Example 98] |  | 1.93 | 1.91 | 90 |  |
|  | CCn1c(=O)n(C(C)(C)C)c(=O)n1-c1cc(SCC(F)(F)F)c(C)cc1F [Example 99] |  | 4.21 | 4.16 | 90 |  |
| 3.22 | Cc1cc(F)c(N2C(=O)C(=O)N(CC(F)F)C2=O)cc1SCC(F)(F)F [Example 101, 1-(2,2-Difluoroethyl)-3-[2-fluoro-4-methyl-5-[(2,2,2-trifluoroethyl)sulfanyl]phenyl]imidazolidine-2,4,5-trione] | 100 |  |  |  | chromatographic logP [1, 4]: 1.73 |
| 1.64 | Cc1cc(F)c(N2CCOC2=O)cc1[S+]([O-])CC(F)(F)F (centres unmarked) [Example 105, 3-[2-Fluoro-4-methyl-5-(2,2,2-trifluoroethylsulfinyl)phenyl]oxazolidin-2-one] | 90 |  |  |  |  |
| 2.92 | Cc1cc(F)c(N2C(=O)OCC2C)cc1SCC(F)(F)F (centres unmarked) [Example 108, 3-[2-Fluoro-4-methyl-5-(2,2,2-trifluoroethylsulfanyl)phenyl]-4-methyloxazolidin-2-one] | 90 |  |  |  |  |
| 1.93 | Cc1cc(F)c(N2CC(C)OC2=O)cc1[S+]([O-])CC(F)(F)F (centres unmarked) [Example 109, 3-[2-Fluoro-4-methyl-5-(2,2,2-trifluoroethylsulfinyl)phenyl]-5-methyloxazolidin-2-one] | 100 |  |  |  | chromatographic logP [1, 4]: 1.89 |
| 2.38 | Cc1cc(F)c(N2C(=O)OC(C)(C)C2=O)cc1[S+]([O-])CC(F)(F)F (centres unmarked) [Example 110, 3-[2-Fluoro-4-methyl-5-(2,2,2-trifluoroethylsulfinyl)phenyl]-5,5-dimethyloxazolidine-2,4-dione] |  |  |  |  | pest or weed control at 100 g/ha ([2]; Tetranychus urticae, foliar, 144 h, application rate 100 g/ha, read-out: efficacy in %): 100% |
| 3.35 | Cc1cc(F)c(N2C(=O)OC(C)(C)C2=O)cc1SCC(F)(F)F [Example 111, 3-[2-Fluoro-4-methyl-5-(2,2,2-trifluoroethylsulfanyl)phenyl]-5,5-dimethyloxazolidine-2,4-dione] | 90 |  |  |  |  |
|  | Cc1cc(C)c(N2C(=O)CSC2=NC2CC2)cc1SCC(F)(F)F [Example 112] |  | 3.65 | 3.65 |  | efficacy in % ([2]; application rate 100 g/ha): 100% |
|  | Cc1cc(F)c(N2C(=O)CSC2=NCC(C)(C)C)cc1SCC(F)(F)F [Example 113] |  | 4.84 | 4.73 | 100 |  |
